Data published in US20170176439A1, “MARKERS AND THERAPEUTIC INDICATORS FOR GLIOBLASTOMA MULTIFORME (GBM)” (Institute for Systems Biology, priority 2014, published 2017).

Assays:
[1] = test system: C-terminal phosphorylation of SMAD2; assay: C-terminal phosphorylation of SMAD2 in U87 cells; assay type: cell-based
Experimental: (§1) To identify markers for subjects that may benefit from this treatment, astrocytoma cell line U87 was serum starved overnight and treated with 10 ng/ml TGF-β1 for 40 hrs. […] However, as serum contains many essential elements and growth factors, the effect of serum starvation on cells might not be specific to the inhibition of TGF-β signaling. Therefore, we employed a TGF-β-inhibitor (SB 431542) known to interfere with the C-terminal phosphorylation of SMAD2. […] Thus in subsequent SRM analysis, TGF-β-inhibitor was used instead of serum starving.

[2] = test system: primary GBM cells from SN143 tumor tissues; assay: Flow cytometry of GBMSig expression in primary GBM cells from SN143 tumor tissue with TGF-β or its inhibitor; assay type: cell-based
Experimental: (§2) The expression of the selected GBMSig proteins responsive to TGF-β viz. SLC16A1, HMOX1, MRC2, SLC16A3, CD47, and CD97 was also tested in primary GBM cells from SN143 tumor tissues in the presence of TGF-β or its inhibitor by flow cytometry.

[3] = test system: healthy neural stem cells (NSCs); assay: GBMSig cell-surface expression in healthy NSCs with TGF-β1 or inhibitor; assay type: cell-based
Experimental: [The source words this procedure for another cell line and reports this cell line under the same test.] as §2, with “cytometry. […] EGFR, EGFRVIII, and PTEN altered in GBM can create further heterogeneities in TGF-β responsiveness as observed through the expression of various GBMSig proteins.” for “cytometry.”

U87 cell line = assay: d-SRM assays of GBMSig protein expression in U87 cell line after TGF-β vs TGF-β-inhibitor treatment; assay type: cell-based
Experimental: Novel TGF-β responsive elements were identified among GBMSig through experimental validation. […] U87 cells were treated with TGF-β1 or its inhibitor alone or sequentially with inhibitor followed by TGF-β1. Changes in expressions of GBMSig proteins following such treatments were measured by SRM assays.
as §1

U-87 cells = details: U-87, flow cytometry
Experimental: In an alternate assay, six GBMSig proteins viz. SLC16A1, MRC2, CD47, SLC16A3, HMOX1, and CD97 were tested as downstream factors of TGF-β signaling by flow cytometry. TGF-β or TGF-β inhibitor treated intact U-87 cells were analyzed by flow cytometry and the ratio of the respective GBMSig expression in response to TGF-β1 over its inhibitor was obtained.

[4] = test system: isogenic cell lines of U87 (EGFR, EGFRVIII, PTEN); assay: Cell-surface GBMSig expression in response to TGF-β in U87 isogenic cell lines; assay type: cell-based
Experimental: Isogenic cell lines of U87 where key proliferative genes such as EGFR and EGFRVIII are overexpressed alone or in combination with PTEN were tested for molecular responsiveness of isogenic cell lines towards TGF-β treatment. In EGFR and EGFRVIII isogenic cell lines, there was elevated surface expression of SLC16A1 and HMOX1 in response to TGF-β treatment. PTEN expression, however, inhibited this effect, indicating possible involvement of a tumor suppressor PTEN in modulating the surface expression of these proteins in GBM. On the other hand, MRC2 and CD47 were up regulated in response to TGF-β treatment when PTEN was overexpressed.
Commonly mutated GBM genes include EGFR, EGFRVIII, and PTEN. Four isogenic cell lines of U87 in which these genes are expressed alone or in combinations of EGFRVIII and PTEN or EGFR and PTEN via a stably integrated retroviral vector were used (Gini, B., et al., Clin Cancer Res. (2013) 19:5722-5732).
There was an increase in the cell-surface expression of CD47, SLC16A3, MRC2, HMOX1 and SLC16A1 in response to TGF-β in all U87 isogenic cell lines similar to that of the parental cell line.

[5] = U87 isogenic overexpressing EGFR
[6] = U87 isogenic overexpressing EGFRVIII
[7] = primary GBM cells from SN143 tissue, flow cytometry

Molecule: NC(=O)c1ccc(-c2nc(-c3ccc4c(c3)OCO4)c(-c3ccccn3)[nH]2)cc1 [SB 431542]
- C-terminal phosphorylation of SMAD2 ([1]; cells in normal media (DMEM+10% FCS) supplemented with inhibitor): dampened or diminished
- increase in surface expression of HMOX1 in response to TGF-β-inhibitor treatment relative to TGF-β treatment ([2]; SN143 tumor-derived GCSC populations): 30%
- expression of MRC2, CD47, SLC16A3 and CD97 after TGF-β-inhibitor treatment ([3]; NSCs): increased expression
- effect on SLC16A1, HMOX1 and CD97 expression ([3]; healthy NSCs): little or no effect
- expression of CD47 in response to TGF-β-inhibitor treatment compared to TGF-β1 treatment ([3]; healthy NSCs): 0.61 fold
- expression of MRC2 in response to TGF-β-inhibitor treatment compared to TGF-β1 treatment ([3]; healthy NSCs): 0.19 fold

Molecule: TGF-β1: TGF-β1, inducer of epithelial to mesenchymal transition, used at 10 ng/ml to treat cells
- C-terminal phosphorylation of SMAD2 ([1]; U87 serum starved overnight, 10 ng/ml TGF-β1 for 40 hrs, in comparison to cells in serum-free media): increased
- CD109 expression following TGF-β treatment relative to TGF-β-inhibitor alone (U87 cell line): 2.09 fold
- CLCC1 expression following TGF-β treatment relative to TGF-β-inhibitor alone (U87 cell line): 2.26 fold
- CRTAP expression following TGF-β treatment relative to TGF-β-inhibitor alone (U87 cell line): 2.12 fold
- DDR2 expression following TGF-β treatment relative to TGF-β-inhibitor alone (U87 cell line): 3.53 fold
- ITGA7 expression following TGF-β treatment relative to TGF-β-inhibitor alone (U87 cell line): 9.45 fold
- MGST1 expression following TGF-β treatment relative to TGF-β-inhibitor alone (U87 cell line): 2.77 fold
- MRC2 expression following TGF-β treatment relative to TGF-β-inhibitor alone (U87 cell line): 3.06 fold
- PTGFRN expression following TGF-β treatment relative to TGF-β-inhibitor alone (U87 cell line): 2.18 fold
- SLC16A1 expression following TGF-β treatment relative to TGF-β-inhibitor alone (U87 cell line): 2.05 fold
- TGFBI expression following TGF-β treatment relative to TGF-β-inhibitor alone (U87 cell line): 10.54 fold
- TNC expression following TGF-β treatment relative to TGF-β-inhibitor alone (U87 cell line): 6.55 fold
- enrichment of CD47, VCAM1, MYOF, ABCA1, CD44, S100A10, CA12 and SLC16A3 on TGF-β treatment vs. TGF-β-inhibitor treatment (U87 cell line): > 1.3 fold
- expression of CD97, SCAMP3, PDIA4, CD99, ABCA1, TMX1, RTN4 and CD151 following TGF-β treatment in comparison to inhibitor treatment (U87 cell line): remained largely unchanged
- expression of the 11 proteins when TGF-β-inhibitor treated cells were retreated with TGF-β (U87 cell line): overexpressed
- expression of ASPH, NRP1, CD276 and HMOX1 following TGF-β treatment (U87 cell line; vs inhibitor treatment): relatively reduced
- increase of ratio of cell-surface CD47, TGF-β over TGF-β inhibitor (U-87 cells): 40%
- increase of ratio of cell-surface HMOX1, TGF-β over TGF-β inhibitor (U-87 cells): 20%
- increase of ratio of cell-surface MRC2, TGF-β over TGF-β inhibitor (U-87 cells): 25%
- increase of ratio of cell-surface SLC16A1, TGF-β over TGF-β inhibitor (U-87 cells): 20%
- increase of ratio of cell-surface SLC16A3, TGF-β over TGF-β inhibitor (U-87 cells): 30%
- increase of ratio of cell-surface CD97, TGF-β over TGF-β inhibitor (U-87 cells; essentially no change): 1.1 fold
- expression of HMOX1 in response to TGF-β ([4]; EGFR+PTEN cells): 1.058 fold
- expression of SLC16A1 in response to TGF-β ([4]; EGFR+PTEN cells): 0.724 fold
- expression of CD97 ([4]; EGFRVIII alone): 0.75±0.010 fold
- expression of SLC16A3 ([4]; EGFRVIII alone): 0.97 fold
- expression of CD97 ([4]; EGFRVIII+PTEN cells): 1.51 fold
- expression of HMOX1 in response to TGF-β ([4]; EGFRVIII+PTEN cells): 1.48 fold
- expression of SLC16A1 in response to TGF-β ([4]; EGFRVIII+PTEN cells): 1.19 fold
- expression of SLC16A3 ([4]; EGFRVIII+PTEN cells): 1.3 fold
- increase in expression of HMOX1 in response to TGF-β compared to the parental cell line [4, 5]: 2.69 fold
- increase in expression of SLC16A1 in response to TGF-β compared to the parental cell line [4, 5]: 1.5±0.028 fold
- increase in expression of HMOX1 in response to TGF-β compared to the parental cell line [4, 6]: 2.13 fold
- increase in expression of SLC16A1 in response to TGF-β compared to the parental cell line [4, 6]: 1.75 fold
- cell-surface expression of CD47, SLC16A3, MRC2, HMOX1 and SLC16A1 in response to TGF-β ([4]; all U87 isogenic cell lines, similar to parental cell line): increase
- MRC2 and CD47 expression in response to TGF-β treatment ([4]; when PTEN was overexpressed): up regulated
- expression of HMOX1 when treated with TGF-β1 compared to its inhibitor [2, 7]: 0.77 fold
- expression of MRC2 when treated with TGF-β1 compared to its inhibitor [2, 7]: 1.62 fold
- expression of SLC16A1 when treated with TGF-β1 compared to its inhibitor [2, 7]: 0.79 fold
- changes in cell-surface expression of SLC16A1, HMOX1, MRC2, CD47, SLC16A3 and CD97 in response to TGF-β treatment ([3]; NSCs): no significant changes
- effect on SLC16A1, HMOX1 and CD97 expression ([3]; healthy NSCs): little or no effect
